According to patent US12310980B2, “Synthesis of a potent aromatase inhibitor 17α-acetoxy-10β,11β-dihydroxy-progesterone for the treatment of ER+ breast cancer” (priority 2023, dated 2025):
Like-named read-outs stand apart in the source and are kept apart here.

Legend:
human aromatase = target: T1, human aromatase (Homo sapiens, UniProt P11511); test: UPLC-based aromatase inhibition assay; type: biochemical
T1 construct: containing protein (2 mg) from human placental microsomes; from tissue; host or cells: human placenta (microsomes)
T1 sequence (P11511 1-503): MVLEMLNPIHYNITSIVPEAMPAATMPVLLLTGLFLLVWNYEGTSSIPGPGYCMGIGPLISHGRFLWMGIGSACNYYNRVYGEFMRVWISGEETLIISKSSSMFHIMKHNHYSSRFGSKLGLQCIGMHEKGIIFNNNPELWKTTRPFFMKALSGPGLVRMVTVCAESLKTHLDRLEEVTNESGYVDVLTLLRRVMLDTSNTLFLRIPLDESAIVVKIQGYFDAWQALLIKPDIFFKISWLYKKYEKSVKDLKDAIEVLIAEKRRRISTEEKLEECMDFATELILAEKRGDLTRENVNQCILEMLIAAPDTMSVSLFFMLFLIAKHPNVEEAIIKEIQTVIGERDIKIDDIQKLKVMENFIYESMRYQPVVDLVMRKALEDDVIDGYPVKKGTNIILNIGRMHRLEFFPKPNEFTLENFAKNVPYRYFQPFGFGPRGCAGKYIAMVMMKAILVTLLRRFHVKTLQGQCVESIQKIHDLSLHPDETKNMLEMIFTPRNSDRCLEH

ovulation = details: oral dosage of 10 mg/day in combination with 50 μg/day ethinylestradiol; cited from earlier work
[1] = test system: human fibroblast cell line; test: cytotoxicity against human fibroblast cell line

CC(=O)O[C@]1(C(C)=O)CC[C@H]2[C@@H]3CCC4=CC(=O)CC[C@@H]4[C@H]3CC[C@@]21C [Compound 1, 17α-acetoxy-19-nor-progesterone]
IC50 (human aromatase; in vitro, human placental microsomes, testosterone substrate, read-out: aromatase inhibition IC50): 740 ± 24.1 nM
inhibition of ovulation (ovulation): inhibit ovulation

CC(=O)O[C@]1(C(C)=O)CC[C@H]2[C@@H]3CCC4=CC(=O)CC[C@]4(O)[C@H]3[C@@H](O)C[C@@]21C [Compound 2, 17α-Acetoxy-10β,11β-dihydroxy-progesterone]
IC50 (human aromatase): 827 ± 66 nM
cytotoxicity [1]: non-cytotoxic
